Test results as given in patent US9109001B2, “3′,5′-cyclic phosphoramidate prodrugs for HCV infection” (priority 2012, dated 2015).
Read-outs that look alike come from different tables or passages of the source.

How the values were obtained:
[1] = Stability in human liver microsomes; type: in vitro ADME; settings: 10 μM, 1.0 mg/mL protein, NADPH, 60 min; percent unchanged
Description: Stability in Liver and Intestinal Subcellular Fractions: Stability of test compounds were determined in subcellular fractions (microsomes and S9) of human liver and intestine in duplicate for each matrix. Pooled liver and intestinal microsomal, intestinal and liver S9 proteins (1.0 mg/mL), suspended in incubation buffer (100 mM potassium phosphate, pH 7.4, 5 mM MgCl2, and 0.1 mM EDTA), were preincubated for 5 min at 37° C. with 10 μM of a test compound from a 10 mM stock solution in DMSO (final DMSO concentration was 0.1%); the reaction was initiated by the addition of NADPH (3 mM final concentration). At specific times (0 and 60 min), 0.1 mL samples were taken and the reaction terminated by the addition of 4 volumes of stop solution (acetonitrile with 500 ng/mL carbutamide as an internal standard). The samples were vortexed for 30 sec and then centrifuged at 16,000 g for 10 min. 100 μL of supernatants were transferred to 96 deep-well plates preloaded with 100 μL distilled water and analyzed after mixing by LC-MS/MS. The MS peak area ratio of the test compound versus the internal standard was calculated and percent unchanged test compound over 60 minutes was calculated using this ratio.

Zluc cells = test: Cytotoxicity evaluation (CellTiter-Blue Cell Viability Assay); type: cell-based, human; settings: read-out: HCV Replicon CC50
HCV genotype 1b replicon = test: HCV Replicon Assay; type: cell-based
Description: Huh-7-derived cell line (Zluc) that harbors an HCV genotype 1b replicon and a luciferase reporter gene was grown in Dulbecco's Modified Eagle Medium (DMEM) supplemented with 10% fetal bovine serum, 2 mM GlutaMAX, 1% MEM nonessential amino acids, 100 IU/mL penicillin, 100 μg/mL streptomycin, and 0.5 mg/mL Geneticin® (G418). For dose response testing the cells were seeded in 96-well plates at 7.5×10^3 cells per well in a volume of 50 μL, and incubated at 37° C./5% CO2. Drug solutions were made up freshly in Huh-7 media as 2× stocks. Ten additional 5-fold dilutions were prepared from these stocks in DMEM without G418. At least three hours after Zluc cells were seeded, drug treatment was initiated by adding 50 μL of drug dilutions to the plates in duplicate. Final concentrations of drug ranged from 100 μM to […]. Cells were then incubated at 37° C./5% CO2. Alternatively, compounds were tested at two concentrations (1 μM and 10 μM). […] For this, media was removed from the plates via gentle tapping. Fifty microliters of ONE-glo luciferase assay reagent was added to each well. The plates were shaken gently for 3 min at room temperature and luminescence was measured on a Victor^3 V 1420 multilabel counter (Perkin Elmer) with a 1 second read time using a 700 nm cut-off filter. The EC50 values were calculated from dose response curves from the resulting best-fit equations determined by Microsoft Excel and XLfit 4.1 software. When screening at two fixed concentrations, the results were expressed as % inhibition at 1 μM and 10 μM.

[2] = Stability in simulated intestinal fluid; type: in vitro ADME; settings: 100 μM, 2 hours at 37° C.; percent of peak area at time zero
Description: Stability in Simulated Gastric and Intestinal Fluids: Simulated gastric and intestinal fluids containing pepsin and pancreatin respectively were prepared according to the U.S. Pharmacopoeia USP291 procedure (www.pharmacopeia.cn/v29240/usp29nf24s0_ris1s126.html). Test compound (final concentration 100 μM) was incubated in duplicate in the appropriate fluid for 2 hours at 37° C. The samples were quenched with 200 μl cold acetonitrile, vortexed for 30 seconds and then centrifuged at 16,100 g for 10 min. The supernatants were analyzed by HPLC on a C-18 column with UV detection at 252 nm. The time 0 samples were prepared by adding SGF or SIF fluid to the quenching solvent followed by the test compound. Stability of the compound was determined by peak area the test compound after incubation and calculated as percent of the peak area observed at time zero.

[3] = Stability in fresh human whole blood; type: in vitro ADME; settings: 0.5 μM, percent unchanged test compound
Description: (§1) Stability in Fresh Whole Blood: Stability of test compounds were determined in fresh human whole blood with K2EDTA as the anticoagulant (stored refrigerated at 2-8° C. and used within 7 days of receipt). The experiment was conducted with three replicates for each time point. Whole blood, pre-incubated at 37° C. for 10-15 minutes, was fortified with a solution of test compound for a final concentration of 0.5 μM and mixed for 30 sec. At intervals (0, 0.5, 1 and 2 hr), three 50-μL aliquots were combined with 200 μL (each) of an ice-cold solution of the internal standard (carbutamide 500 ng/mL in acetonitrile). The samples were vortexed for 30 sec and then centrifuged at 16,100 g for 5 min. The supernatant was analyzed by LC-MS/MS. The MS peak area ratio of the test compound versus the internal standard was calculated and percent unchanged test compound was calculated for each time point using this ratio.

Stability in mouse blood = type: in vitro ADME; settings: on ice, percent unchanged test compound
Description: as §1
The stability in mouse blood was determined on ice at 0, 0.5 and 1 hr as above.

fresh human hepatocytes = test: Release of active metabolite in fresh human hepatocytes; type: in vitro ADME; settings: 10 μM
Description: Assay for the Release of Active Metabolite in Primary Hepatocytes: Plates of fresh human and mouse hepatocytes were obtained on ice. The medium was removed and replaced with hepatocyte culture medium (William's E supplemented with penicillin-streptomycin, 1% L-glutamine, 1% insulin-transferrin-selenium and 0.1 μM Dexamethasone (Invitrogen) or with Invitro GRO HI medium complemented with Torpedo antibiotics (Celsis)). Cells were left overnight in an incubator at 37° C. to acclimatize to culture and the medium.
Hepatocyte incubations were conducted at a final volume of 0.5 mL hepatocyte culture medium/well (0.8 million cells/well for human and 0.5 million cells/well for mouse; 12 well plate no overlay, collagen coat). Culture medium from overnight incubation of cells was removed and replaced with fresh medium, pre-warmed to 37° C., containing 10 μM of test compound from a stock solution in DMSO (final DMSO concentration was 0.1%). At each specific time point, incubation medium was removed and cell monolayers were carefully washed two times with ice-cold PBS. Following the last wash, all PBS was carefully removed and 1.0 mL of extraction solution (ice-cold 70% methanol/30% water) added. Cells were scraped off and suspended in the extraction solution, transferred to 2 mL polypropylene microfuge tubes and intracellular contents extracted overnight at −20° C.
After the overnight treatment the cellular extracts were prepared by centrifugation at 16,000×g for 10 min to remove cellular debris. The remaining sample was then dried using a refrigerated centrivap concentrator. Dry extracts were reconstituted in 1000 μL of HPLC-grade water and centrifuged at 16,000×g for 10 min. Aliquots (100 μL each) of the supernatant were transferred into a 96 well plate and internal standard (4 ng/mL final concentration) was added as the internal standard (IS) for LC-MS/MS analysis.
The incubation time points were 6, 24 and 48 hours for human hepatocytes and 1, 4, 8, 12 and 24 hours for mouse hepatocytes.

[4] = Cytotoxicity evaluation (CellTiter-Blue Cell Viability Assay); type: cell-based, human; settings: human, Zluc cells, read-out: HCV Replicon CC50
Huh-7 cells = test: Release of active metabolite in Huh-7 cells; type: in vitro ADME, human; settings: Table 6, AUC0-72
Description: Assay for the Release of Active Metabolite in Huh-7 Cells. Huh-7 cells were plated in 1 mL culture medium (DMEM, containing glucose, L-glutamine and sodium pyruvate, 10% FBS, 100 IU/mL penicillin, 100 μg/mL streptomycin, 2 mM GlutaMAX, 1% MEM non-essential amino acids) at the concentration 0.8, 0.4 and 0.2 million cells per well on 6 well plates for 24, 48 and 72 hr treatment, respectively. Plated cells were incubated overnight at 37° C. in an incubator.
The following morning test compound was diluted to 20 μM from a stock solution in DMSO in fresh culture medium pre-warmed to 37° C. and 1 mL of the solution/well was added to cells. A final medium volume per well was 2.0 mL, test compound concentration in well was 10 μM and final DMSO concentration was 0.1%.
After 24, 48 or 72 hr, the medium was carefully removed and cell monolayers were washed twice with 2 mL ice-cold PBS per well. Following the last wash, all PBS was carefully removed and 1.0 mL of extraction solution (ice-cold 70% methanol) added. The plate was tightly covered with Parafilm, plastic plate cover and Parafilm again and an intracellular content was extracted at −20° C. for 24 hr.
After 24 hr extracts were transferred into polypropylene microfuge tubes and dry on a refrigerated centrivap concentrator. Dry residues were reconstituted in 250 μL of HPLC-grade water and centrifuged at 16,000×g for 10 min. Aliquots (100 μL each) of the supernatants were transferred into a 96 well plate and internal standard (4 ng/mL final concentration) was added as the internal standard (IS) for LC-MS/MS analysis.

[5] = biological target: T1, carboxylesterase 1 (CES1) (Homo sapiens, UniProt P23141); test: CES1 hydrolysis assay; settings: 100 μM compound, 37° C.
T1 sequence (P23141 18-567): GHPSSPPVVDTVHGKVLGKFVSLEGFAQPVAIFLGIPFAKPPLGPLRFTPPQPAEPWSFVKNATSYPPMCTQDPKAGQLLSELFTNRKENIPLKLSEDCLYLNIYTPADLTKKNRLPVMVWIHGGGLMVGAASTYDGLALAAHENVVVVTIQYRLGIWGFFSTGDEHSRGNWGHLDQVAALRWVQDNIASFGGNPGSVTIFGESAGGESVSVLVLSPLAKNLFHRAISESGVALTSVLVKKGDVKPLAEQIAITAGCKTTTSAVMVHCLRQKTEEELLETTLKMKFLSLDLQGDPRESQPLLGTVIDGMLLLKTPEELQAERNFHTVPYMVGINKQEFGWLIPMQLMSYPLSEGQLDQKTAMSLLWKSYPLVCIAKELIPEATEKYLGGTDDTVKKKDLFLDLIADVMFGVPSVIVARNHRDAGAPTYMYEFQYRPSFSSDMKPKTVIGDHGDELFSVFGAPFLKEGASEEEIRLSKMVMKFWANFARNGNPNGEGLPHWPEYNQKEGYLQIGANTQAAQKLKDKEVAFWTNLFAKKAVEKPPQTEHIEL
Description: (§2) CES1 assay was performed at 37° C. in the reaction mixture containing 50 mM Tris/HCl buffer pH 7.5 and 100 μM of the compound. Reaction was started by addition of the CES1 to the final concentration 0.01 μg/mL. 100 μL aliquots were taken after 0.5 min, 3 hrs and 21 hrs of the incubation and the reaction was stopped by mixing with 100 μl of the ice-cold methanol prior to HPLC analysis.
(§3) Samples were analyzed by HPLC using 5 μC-18, 4.6×250 mm Phenomenex® Columbus column (Phenomenex USA, CA). The mobile phase consisted of buffer A (25 mM potassium phosphate with 5 mM tetrabutylammonium dihydrogen phosphate pH 6.3) and buffer B (100% methanol).

cathepsin A (CatA) = biological target: T2, cathepsin A (CatA) (Homo sapiens, UniProt P10619); test: CatA hydrolysis assay; type: in vitro ADME; settings: for CatA hydrolysis @ 18 h: 100 μM compound, 37° C.
T2 sequence (P10619 29-326 limits assumed): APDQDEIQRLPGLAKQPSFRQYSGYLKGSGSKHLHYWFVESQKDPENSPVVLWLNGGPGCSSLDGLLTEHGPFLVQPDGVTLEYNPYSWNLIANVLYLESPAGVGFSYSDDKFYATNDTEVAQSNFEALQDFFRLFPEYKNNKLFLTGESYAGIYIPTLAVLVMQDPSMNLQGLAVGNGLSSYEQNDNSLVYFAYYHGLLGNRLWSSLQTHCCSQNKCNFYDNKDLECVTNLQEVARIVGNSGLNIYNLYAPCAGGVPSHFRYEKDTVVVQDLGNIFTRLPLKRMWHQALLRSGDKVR
T2 sequence (P10619 327-480 limits assumed): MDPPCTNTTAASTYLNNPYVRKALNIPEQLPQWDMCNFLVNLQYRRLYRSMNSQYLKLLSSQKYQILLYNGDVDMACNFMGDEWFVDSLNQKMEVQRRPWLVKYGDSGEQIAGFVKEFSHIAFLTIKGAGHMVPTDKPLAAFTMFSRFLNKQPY
Description: CatA, cathepsin L (CatL) and CES1 were purchased from R & D Systems (Minneapolis, Minn.). Prior to the enzymatic hydrolysis reactions, CatA was activated according to the manufacturer's instruction. Briefly, CatA (0.05 μg/μL) was incubated with CatL (0.005 μg/μL) for 30 min at 37° C. in 25 mM MES pH 6.0 containing 5 mM DTT. The reaction was stopped by addition of the CatL specific inhibitor E64 (10 μM).
The CatA assay was performed at 37° C. The reaction mixture contained 25 mM MES buffer pH 6.0, 100 mM NaCl, 4 mM DTT and 100 μM of the compound. The reaction was started by addition of the activated CatA enzyme to a final concentration of 0.005 μg/μL. One hundred-μL aliquots were taken after 0.5 min, 3 hrs and 18 hrs of incubation. Reactions were stopped by mixing the sample with an equal volume of ice-cold methanol, and were loaded on a HPLC for analysis.
as §3

Liver TP (Table 6) = type: in vivo; settings: liver triphosphate, species and dose not stated
[6] = biological target: T1, carboxylesterase 1 (CES1)
Description: as §2, §3

Structure (SMILES)	Stability HLM (1 hr) [1]	Stability SIF [2]	Stability WB_Human (37° C.; 2 hr) [3]	Stability WB_Mouse (ice; 1 hr) (Stability in mouse blood)	FHH TP AUC (pmol · hr/mill cells) (fresh human hepatocytes)	Huh-7 pmol*hr/10^6 cells AUC0-72 (Huh-7 cells)	CatA hydrolysis @ 18 h (cathepsin A (CatA))	other results
CCOc1nc(N)nc2c1ncn2[C@@H]1O[C@@H]2COP(=O)(NCCC(=O)OC(C)C)O[C@H]2[C@@]1(C)F (single isomer, unassigned) [Compound 2 Diastereomer 2]	5.7%	91%	91%	60%	336 pmol · hr/mill cells	–	–	CC50 (Zluc cells): > 50 µM; EC50 (HCV genotype 1b replicon; Zluc (Huh-7-derived) cells, HCV genotype 1b replicon, luciferase reporter, 72 hours, read-out: HCV Replicon EC50): 250 to 1000 nM
CCOc1nc(N)nc2c1ncn2[C@@H]1O[C@@H]2COP(=O)(N[C@@H](C)COC(=O)C(C)C)O[C@H]2[C@@]1(C)F (single isomer, unassigned) [Compound 3 Diastereomer 2]	0.3%	39%	1%	20%	1426 pmol · hr/mill cells	–	–	CC50 [4]: > 50 µM; EC50 (HCV genotype 1b replicon; Hepatitis C virus, 72 h, Zluc (Huh-7-derived) cells, HCV genotype 1b replicon, luciferase reporter, 72 hours, read-out: HCV Replicon EC50): < 250 nM
CC(C)OC(=O)[C@H](C)N[P@](=O)(OC[C@H]1O[C@@H](n2ccc(=O)[nH]c2=O)[C@](C)(F)[C@@H]1O)Oc1ccccc1 (single isomer, unassigned) [GS-7977]	–	–	–	–	–	63555 pmol*hr/10^6 cells	100% @	EC50 (HCV genotype 1b replicon; Hepatitis C virus, Huh-7, Table 6, genotype 1b HCV replicon-bearing Huh-7 cells, read-out: EC50): 250 nM; CES1 hydrolysis 3 h ([5]; 3 h): 12%/3 h;; CES1 hydrolysis 21 h ([5]; 21 h): 15%/21 h; CatA cleavage efficiency versus RP diastereoisomer (cathepsin A (CatA); GS-7977 (SP) relative to PSI-7976 (RP)): 10 times
CC(C)OC(=O)[C@H](C)N[P@@](=O)(OC[C@H]1O[C@@H](n2ccc(=O)[nH]c2=O)[C@](C)(F)[C@@H]1O)Oc1ccccc1 [PSI-7976]	–	–	–	–	–	6527 pmol*hr/10^6 cells	10% @	EC50 (HCV genotype 1b replicon; Table 6, genotype 1b HCV replicon-bearing Huh-7 cells, read-out: EC50): 2080 nM; Liver TP (Liver TP (Table 6)): 310 pmol·h/g; Hydrolysis by CES1 (in words) [6]: preferentially hydrolyzed
